Tests used:
Assay in all cases: radiometric kinase assay, SDS-PAGE
Assay type in all cases: biochemical
human (Hs) Chk2 = target: T1, human (Hs) Chk2 (Homo sapiens, UniProt O96017); settings: phosphate donor, 300 μM ATP spiked with labelled compound; acceptor histone H1 / Cdc25 peptide; 10 mM Mg acetate, pH 7.6, 30 °C
T1 construct: gene CHEK2

mouse (Mm) Chk2 = target: T2, mouse (Mm) Chk2 (Mus musculus, UniProt Q9Z265); settings: phosphate donor, 300 μM ATP spiked with labelled compound; acceptor histone H1 / Cdc25 peptide; 10 mM Mg acetate, pH 7.6, 30 °C
T2 construct: gene Chek2
T2 sequence (Q9Z265 whole entry): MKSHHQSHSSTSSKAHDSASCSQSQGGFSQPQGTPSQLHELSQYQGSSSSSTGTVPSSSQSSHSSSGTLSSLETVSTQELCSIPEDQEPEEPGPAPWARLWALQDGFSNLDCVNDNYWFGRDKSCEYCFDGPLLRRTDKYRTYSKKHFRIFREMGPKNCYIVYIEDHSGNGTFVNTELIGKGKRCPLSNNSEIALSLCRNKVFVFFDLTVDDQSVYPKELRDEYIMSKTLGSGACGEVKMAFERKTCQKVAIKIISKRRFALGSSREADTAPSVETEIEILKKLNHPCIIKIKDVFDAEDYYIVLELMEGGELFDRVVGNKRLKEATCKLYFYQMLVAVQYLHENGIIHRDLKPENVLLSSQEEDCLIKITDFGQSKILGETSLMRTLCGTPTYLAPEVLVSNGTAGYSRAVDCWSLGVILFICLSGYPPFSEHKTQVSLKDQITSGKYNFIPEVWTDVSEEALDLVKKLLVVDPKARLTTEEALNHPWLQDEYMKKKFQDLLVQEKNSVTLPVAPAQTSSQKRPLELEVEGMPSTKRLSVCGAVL

human (Hs) Chk1 = target: T3, human (Hs) Chk1 (Homo sapiens, UniProt O14757); settings: phosphate donor, 300 μM ATP spiked with labelled compound; acceptor MCM2-7 / CMG / histone H1; 10 mM Mg acetate, pH 7.6, 30 °C
T3 construct: gene CHEK1
T3 sequence (O14757 1-476): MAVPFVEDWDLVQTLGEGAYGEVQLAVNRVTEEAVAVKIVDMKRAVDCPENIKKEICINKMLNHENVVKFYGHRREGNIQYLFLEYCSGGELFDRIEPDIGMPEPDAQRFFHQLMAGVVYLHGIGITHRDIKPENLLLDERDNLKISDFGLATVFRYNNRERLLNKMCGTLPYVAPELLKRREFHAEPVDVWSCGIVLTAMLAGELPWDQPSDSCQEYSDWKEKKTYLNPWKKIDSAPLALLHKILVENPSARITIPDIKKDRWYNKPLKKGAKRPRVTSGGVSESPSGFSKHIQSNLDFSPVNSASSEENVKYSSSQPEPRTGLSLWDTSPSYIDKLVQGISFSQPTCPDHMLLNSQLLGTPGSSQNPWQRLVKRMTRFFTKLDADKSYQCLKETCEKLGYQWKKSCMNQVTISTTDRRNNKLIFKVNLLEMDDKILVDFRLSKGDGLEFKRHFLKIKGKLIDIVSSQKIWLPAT

Drosophila (Dm) Chk1 = target: T4, Drosophila (Dm) Chk1 (Drosophila melanogaster, UniProt O61661); settings: phosphate donor, 300 μM ATP spiked with labelled compound; acceptor MCM2-7 / CMG / histone H1; 10 mM Mg acetate, pH 7.6, 30 °C
T4 construct: gene grp
T4 sequence (O61661 1-512): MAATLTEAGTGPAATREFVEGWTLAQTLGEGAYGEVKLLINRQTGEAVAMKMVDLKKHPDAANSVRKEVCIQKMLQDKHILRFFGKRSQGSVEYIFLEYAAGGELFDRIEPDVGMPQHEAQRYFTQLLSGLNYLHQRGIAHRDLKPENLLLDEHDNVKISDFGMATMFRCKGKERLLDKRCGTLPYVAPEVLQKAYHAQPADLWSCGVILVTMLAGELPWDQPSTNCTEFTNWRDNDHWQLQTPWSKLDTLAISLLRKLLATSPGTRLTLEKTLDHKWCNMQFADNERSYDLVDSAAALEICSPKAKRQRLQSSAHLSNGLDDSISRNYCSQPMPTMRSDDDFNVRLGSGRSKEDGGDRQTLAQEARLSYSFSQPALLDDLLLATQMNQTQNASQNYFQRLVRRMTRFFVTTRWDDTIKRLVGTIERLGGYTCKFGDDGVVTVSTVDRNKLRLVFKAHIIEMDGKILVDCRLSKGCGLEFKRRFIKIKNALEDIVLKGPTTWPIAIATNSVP

T1 sequence (O96017 whole entry): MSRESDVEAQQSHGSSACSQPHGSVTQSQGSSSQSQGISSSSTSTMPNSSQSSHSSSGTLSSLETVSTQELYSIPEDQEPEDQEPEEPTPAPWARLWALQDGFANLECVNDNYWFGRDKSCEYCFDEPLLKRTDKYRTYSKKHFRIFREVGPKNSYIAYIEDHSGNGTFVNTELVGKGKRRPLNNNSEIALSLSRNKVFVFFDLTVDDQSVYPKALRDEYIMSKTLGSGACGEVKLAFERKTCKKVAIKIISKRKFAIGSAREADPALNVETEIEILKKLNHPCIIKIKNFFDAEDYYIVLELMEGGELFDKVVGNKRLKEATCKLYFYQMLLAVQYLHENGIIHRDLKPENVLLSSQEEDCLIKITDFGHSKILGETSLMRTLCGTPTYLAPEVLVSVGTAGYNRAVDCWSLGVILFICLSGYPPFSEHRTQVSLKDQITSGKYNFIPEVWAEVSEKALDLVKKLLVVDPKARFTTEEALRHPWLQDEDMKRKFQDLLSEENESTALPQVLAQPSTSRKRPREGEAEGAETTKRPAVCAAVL

Nc1ncnc2c1ncn2[C@@H]1O[C@H](COP(=O)(O)OP(=O)(O)OP(=O)(O)O)[C@@H](O)[C@H]1O [ATP] was tested, and the “radiometric kinase assay, SDS-PAGE” value (human (Hs) Chk2) was “human and mouse Chk2 were able to efficiently phosphorylate Cdc25 and histone H1 control substrates”, the “radiometric kinase assay, SDS-PAGE” value (mouse (Mm) Chk2) was “human and mouse Chk2 were able to efficiently phosphorylate Cdc25 and histone H1 control substrates” and the “radiometric kinase assay, SDS-PAGE” value (human (Hs) Chk1) was “The Chk1 proteins from Drosophila and humans phosphorylated MCM2-7 with similar efficiency”. The “radiometric kinase assay, SDS-PAGE” value (Drosophila (Dm) Chk1) was “Drosophila Chk1 phosphorylated, on average, close to one residue per MCM2-7 complex”.

Reference: PMC12018195, “A conserved phosphorylation mechanism for regulating the interaction between the CMG replicative helicase and its forked DNA substrate” (The Journal of Biological Chemistry, 2025)
